In PMC10648349, “Aromatic Diboronic Acids as Effective KPC/AmpC Inhibitors” (Molecules, 2023):
Values after ≈ are worked out from the molar mass of the structure shown.

Experiments:
C. krusei ATCC 6258 = experiment: antifungal activity (disc-diffusion, MIC, MFC); type: cell-based, Candida krusei; conditions: Pichia kudriavzevii, ATCC6258
Method in brief: (§1)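 Disc-diffusion, MIC, MBC (bacteria) and MFC (yeasts) were determined per EUCAST and CLSI recommendations. Diboronic acids were dissolved in DMSO and applied at 0.4 mg per disc for diffusion. References: nitrofurantoin (Gram-negative rods), linezolid (Gram-positive), fluconazole (fungi).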

[1] = tested on: C. parapsilosis ATCC 22019; experiment: antifungal activity (disc-diffusion, MIC, MFC); type: cell-based, Candida parapsilosis; conditions: Lodderomyces parapsilosis, ATCC22019
Method in brief: as §1

[2] = tested on: K. pneumoniae ATCC 700603 ESBL-positive; experiment: combination disc test CDT-ESBL; type: cell-based; conditions: Klebsiella pneumoniae, ATCC700603; agent 0.03 mg per disc; read-out: Diameter of inhibition zone, CAZ-30 disc with agent
[3] = tested on: K. pneumoniae 81 KPC-3-positive; experiment: checkerboard microdilution, antibiotic plus tested agent; type: cell-based, Klebsiella pneumoniae
Method in brief: (§2)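 Read-out is the antibiotic MIC with agent present, plus FICI = combined/alone MIC ratios summed for both partners. Meropenem pairs served for carbapenemase strains and ceftazidime pairs for the AmpC strain. Agent or PBA was tested at 4–16 mg/L.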

[4] = tested on: K. pneumoniae 83 KPC-3-positive, CTX-M-3-positive; experiment: as above; type: cell-based, Klebsiella pneumoniae
Method in brief: as §2

[5] = tested on: K. pneumoniae ATCC BAA-1705 KPC-2-positive; experiment: as above; type: cell-based, Klebsiella pneumoniae
Method in brief: as §2

[6] = tested on: E. coli 77 CMY-2-positive; experiment: combination disc test CDT-AmpC; type: cell-based; conditions: Escherichia coli; agent 0.03 mg per disc; read-out: Diameter of inhibition zone, CAZ-30 disc with agent
[7] = MTT-based viability assay; type: cell-based; conditions: human
Method in brief: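 MRC-5 human fibroblasts grown in MEME with 10% FBS at 37 °C, 5% CO2, tested by MTT with absorbance read at 570 nm. Viability given as percent of untreated control cells, in triplicate.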

E. coli 77 CMY-2(+) = experiment: screening test of direct antimicrobial activity (STDA), disc-diffusion; type: cell-based; conditions: Escherichia coli, - no zone, read-out: Diameter of inhibition zone around disc with tested agent
Experimental: (§3) Prior to combination disc tests, screening tests of direct antimicrobial activity (STDA) of the tested agent against β-lactamase-producing strains were performed by the disc-diffusion method. Discs with 0.3 mg, 0.1 mg, and 0.03 mg of each agent were examined. The highest amount of an agent that caused no effect on bacterial growth was used in further experiments.

[8] = tested on: K. pneumoniae ATCC 700603 ESBL(+); experiment: as above; type: cell-based; conditions: Klebsiella pneumoniae, ATCC700603, - no zone, read-out: Diameter of inhibition zone around disc with tested agent
Experimental: as §3

[9] = tested on: K. pneumoniae ATCC BAA 1705 KPC(+); experiment: as above; type: cell-based; conditions: Klebsiella pneumoniae, BAA1705, - no zone, read-out: Diameter of inhibition zone around disc with tested agent
Experimental: as §3

[10] = tested on: P. aeruginosa MUW 700 AmpC(+); experiment: as above; type: cell-based; conditions: Pseudomonas aeruginosa, - no zone, read-out: Diameter of inhibition zone around disc with tested agent
Experimental: as §3

[11] = tested on: E. coli 77 CMY-2-positive; experiment: checkerboard microdilution, antibiotic plus tested agent; type: cell-based, Escherichia coli
Method in brief: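 β-lactam 1–64 mg/L × agent/PBA 4–16 mg/L checkerboard; meropenem vs carbapenemase producers, ceftazidime vs AmpC producer; imipenem, ertapenem added for selected agents. Readout: combination MICs, FICI (average and lowest); off-scale MICs taken as next doubling.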

[12] = 0.4 mg per disc, 9 mm disc (fluconazole 0.025 mg, 6 mm disc), - no zone, read-out: Diameter of inhibition zone

MIC (C. krusei ATCC 6258; fluconazole by Etest): 50 µg/mL (≈ 317 µM)
MIC ([1]; fluconazole by Etest): 25 µg/mL (≈ 158 µM)
Compound: OB(O)c1cc(F)ccc1F [7a, 2,5-difluorophenylboronic acid]
zone of inhibition at 0.4 mg/disc (C. krusei ATCC 6258; [12]): 15 mm
zone of inhibition at 0.4 mg/disc [1, 12]: 21 mm
zone of inhibition at 30 µg/disc [2]: 15 mm
Average FICI with ERT [3]: 0.46
Average FICI with IMI [3]: 0.21
Average FICI with MEM [3]: 0.23
The lowest FICI with ERT [3]: 0.33
The lowest FICI with IMI [3]: 0.17
The lowest FICI with MEM [3]: 0.14
Average FICI with ERT [4]: 0.51
Average FICI with IMI [4]: 0.30
Average FICI with MEM [4]: 0.47
The lowest FICI with ERT [4]: 0.41
The lowest FICI with IMI [4]: 0.29
The lowest FICI with MEM [4]: 0.29
Average FICI with ERT [5]: 0.76
Average FICI with IMI [5]: 0.43
Average FICI with MEM [5]: 0.51
The lowest FICI with ERT [5]: 0.58
The lowest FICI with IMI [5]: 0.33
The lowest FICI with MEM [5]: 0.41
zone of inhibition at 30 µg/disc [6]: 19 mm
viability at 72 h, 12.5 mg/L [7]: 83 ± 2.9%
viability at 72 h, 25 mg/L [7]: 79.9 ± 3.7%
viability at 72 h, 50 mg/L [7]: 67.3 ± 3.1%
zone of inhibition at 100 µg/disc (E. coli 77 CMY-2(+); 0.1 mg per disc): 13 mm
zone of inhibition at 300 µg/disc (E. coli 77 CMY-2(+); 0.3 mg per disc): 18 mm
zone of inhibition at 100 µg/disc ([8]; 0.1 mg per disc): 18 mm
zone of inhibition at 300 µg/disc ([8]; 0.3 mg per disc): 18 mm
zone of inhibition at 100 µg/disc ([9]; 0.1 mg per disc): 12 mm
zone of inhibition at 300 µg/disc ([9]; 0.3 mg per disc): 17 mm
zone of inhibition at 100 µg/disc ([10]; 0.1 mg per disc): 11 mm
zone of inhibition at 300 µg/disc ([10]; 0.3 mg per disc): 12 mm
Average FICI with ceftazidime [11]: 0.17
The lowest FICI with ceftazidime [11]: 0.14
